# Data taken from patent publication US6011000A, “Compositions for the treatment of blood disorders” (priority 1995, dated 2000).
# Legend:
# human erythroid cells = test: DNA fragmentation by flow cytometry (degradation of DNA); assay type: cell-based
# Method: Such activities might limit their utility for treatment of anemias such as occur in thalassemia, but alternatively would be useful for anticancer effects. To determine cell viability, human erythroid cells were cultured in the presence and absence of these compounds for 4 days and the amount of DNA fragmentation which occurred was measured.
# Flow cytometric determination of DNA profiles and DNA fragmentation were determined. Cytometric analysis was performed with a FACScan (Becton Dickenson Instruments; Columbia, Md.). The data analysis and display were performed using the Cell-Fit software program. Approximately 0.5×10^6 cells were washed twice with PBS and resuspended in 1 ml of 1% sodium citrate, 0.1% Triton X-100 and 50 μg of propidium iodide/ml. Resulting permeabilized cells were kept in the dark at 4° C. overnight before DNA profile or DNA fragmentation analysis (Table 4).
# K562 = test: Growth of human erythroid cell line K562; assay type: cell-based; settings: for growth of K562: 0.5 mM, over 3 days
# Method: Such activities might limit their utility for treatment of anemias such as occur in thalassemia, but alternatively would be useful for anticancer effects. […]
# (§1) Cell viability analyses were performed using fluorescent staining to detect living cells. Cells were in log phase of growth in 6-well dishes when used in proliferation assays. For enumeration of living cells, wells were washed once with medium to remove nonadherent or dead cells. Remaining live cells were labeled with Calcein-AM for 20 minutes at 37° C. and washed once. Fluorescence intensity of adherent live cells was read on a CytoFluor 2300 Fluorescence Plate Scanner (Millipore; Bedford, Mass.) at excitation and emission wavelengths of 485 and 530 nm, respectively. The fluorescence intensity of a well was proportional to the number of living cells in the well. Background fluorescence was measured separately for each plate and subtracted from all readings. Each experiment was performed in triplicate or quadruplicate. The standard deviation (SD) of repetitive readings was less than 30% of the mean.
# At higher concentrations, still easily achievable in vivo, arginine butyrate (0.5 mM) and dihydrocinnamic acid (greater than 0.5 mM) inhibited growth of this tumor cell line by approximately 50%. Therefore, these compounds are also useful as anti-tumor agents.
# [1] = tested on: fetal globin (gamma globin); test: Fetal globin expression in erythroid progenitor cells from cord blood; assay type: cell-based, human
# Method: Compositions were tested for activity in inducing fetal globin expression and protein production in erythroid progenitor cells cultured from human cord blood and analyzed as described by S. P. Perrine et al. (Blood 74: 454-60, 1989). Briefly, mononuclear cells were cultured in IMDM with 30% fetal calf serum and 2 units erythropoietin per ml to induce erythroid differentiation. Colonies were harvested on day 12-13, incubated with radio-labelled (^3 H) leucine, and further incubated in leucine-free media, still in the presence of compounds, overnight. Globin composition in the erythroid cells was analyzed by laser densitometry of electrophoretically separated globin chains stained with Coomassie blue, and by autoradiography. Treated cells were incubated for 12-13 days (Table 2, Experiments A and B) or overnight (Table 2, Experiment C) in the presence of the indicated compounds and compared to untreated control cells cultured from the same human subject.
# [2] = tested on: fetal globin mRNA (human erythroleukemia cells); test: Fetal globin mRNA in erythroleukemia cells (primer extension); assay type: cell-based
# Method: Compounds were tested for increased expression of the human globin genes in human erythroid cells. In addition, as the cell line being tested is a tumor cell line, the assay determines if differentiation, a growth inhibitory effect on cancer cells, is induced by the compounds tested. Human erythroleukemia cells were cultured in RPMI media with 10% fetal calf serum alone or with treatment with various compounds for 4 days. Globin MRNA was quantitated by primer extension analysis. Fetal globin mRNA was compared to the amount of fetal globin mRNA produced in untreated cells during the same culture period. The quantitation was expressed as a percent of alpha globin MRNA which was constant. Results are expressed proportional to α-globin mRNA (Table 3).
# K562 cells = test: Dose response of cell growth, trypan blue exclusion (FIG. 3); assay type: cell-based, human; settings: up to 2.0 mM, day 4
# Method: FIG. 3 Cell viability as determined by the comparative numbers of total and viable K562 cells in the presence of increasing concentrations of (A) phenoxyacetic acid, (B) dihydrocinnamic acid, (C) butyric acid ethyl ester, (D) arginine butyrate, and (E) isobutyramide.
# Dose response curves at dosages of up to 2.0 mM were also determined for phenoxyacetic acid (PAA; FIG. 3A), dihydrocinnamic acid (DHC; FIG. 3B), butyric acid ethyl ester (BAEE; FIG. 3C), arginine butyrate (AB; FIG. 3D) and isobutyramide (IBT; FIG. 3E). Cells were counted on day 4 of treatment and viable cells identified by trypan blue exclusion.
# [3] = tested on: erythroid cells (peripheral blood); test: Erythroid cell viability by fluorescent staining (Calcein-AM), FIG. 2; assay type: cell-based, human; settings: 0.5 mM, vs untreated controls
# Method: FIG. 2 Peripheral blood cell viability after incubation with arginine butyrate, dihydrocinnamic acid, phenoxyacetic acid and butyric acid ethyl ester.
# as §1, with “Compositions were tested for the ability to directly stimulate erythroid cell growth. Cell growth stimulation is a useful property for an agent to be used to treat anemias and distinguishes such agents from the cytotoxic drugs currently being tested for treatment of hemoglobinopathies. Cell viability” for “Cell viability”, “labeled with 2 μM 2',7'-bis-(carboxyethyl)-5-(and 6)-carboxy-fluorescein acetoxy-methyl ester (Calcein-AM) (Molecular Probes; Eugene, Oreg.) for 20” for “labeled with Calcein-AM for 20”, “intensity of live cells” for “intensity of adherent live cells”, “the mean. Results are depicted in FIG. 2.” for “the mean.”
# [4] = tested on: BFU-e (burst forming unit-erythroid); test: BFU-e stimulation (colony growth) in cultured peripheral blood mononuclear cells; assay type: cell-based; settings: Homo sapiens, PBMC; 0.1 mM; read-out: more BFU-e colonies from the same number of mononuclear cells than control cultures
# Method: Peripheral blood was collected from normal volunteers and patients with anemia due to sickle cell disease or thalassemia Mononuclear cells were isolated by Ficoll-Hypaque (Pharmacia Biotech; Piscataway, N.J.) centrifugation and cultured in Iscove's Modified Dulbecco's Media (IMDM; GIBCO/BRL; Grand Island, N.Y.) supplemented with 10% fetal calf serum, 300 μg/ml glutamine, 3 units/ml IL 3 (Amgen; Thousand Oaks, Calif.), and 2 units/ml erythropoietin (Terry Fox Labs; Vancouver, B.C.). Chemical compounds were obtained from Sigma Chemical (St. Louis, Mo.) or Aldrich Chemical (Milwaukee, Wis.), unless otherwise indicated, and formulated into pharmaceutical compositions by dissolving in aqueous solutions of media or sterile water pH adjusted to about 7.4. Solutions were sterilized by passage at least once through 0.22 micron Nalgene filters and added to cell cultures at final concentrations that are pharmaceutically achievable in vivo (typically between about 0.1 mM to 2.0 MM). Cells were incubated with compounds for between 13-14 days at 37° C. in humidified 5% CO2, and fed and passed, as necessary. Colony growth, proportion of fetal globin-expressing cells and amounts of fetal globin production were assayed. Results are presented in Table 1 as BFU-e stimulation (colony growth). […]
# anemic baboon = test: In vivo reticulocyte proliferation, globin expression and blood counts in anemic (phlebotomized) baboons; settings: 4 days
# Method: Experiments were performed to determine if administration of the chemical compositions could induce fetal globin gene expression in an in vivo model similar to humans (S. P. Perrine et al., Brit. J. Haematol. 88:555-61, 1994). Briefly, chemicals were prepared as sterile pharmaceutical solutions in pH adjusted sterile water. A variety of chemical compositions were administered sequentially to some baboons. After administration of one compound, a wash-out period with no compound administration was maintained until reticulocytes returned to base line prior to administration of the next compound. This was done, at least partly, to compare the magnitude of response which occurred within the same individual animal to different compounds.
# Briefly, juvenile female baboons (2 years old) were catheterized with arterial and venous catheters and phlebotomized gradually every day to maintain a moderate anemia of 7.0 to 7.5 grams hemoglobin/dl. Fetal reticulocytes, the newly produced red blood cells containing fetal globin, were assayed using a monoclonal antibody against fetal globin (HbF) as described by G. Dover et al. (Blood 67:735-38, 1986). Briefly, blood was stained with two antibodies, one specific for reticulocytes and another against fetal globin protein. The amount of antibody bound cells was determined by FACS analysis. Globin chain synthesis was assayed as described by J. B. Clegg et al. (J. Mol. Biol. 19:91-108, 1966). Briefly, reticulocytes were radio-labeled with ^3 H-leucine which was incorporated in equal proportions into actively synthesized globin chains. After incubation in leucine-free media, cells were washed, and globin proteins were separated and purified by column chromatography. Radioactivity incorporated into each peak is compared and the ratios of gamma to gamma plus beta globin calculated. Each animal served as its own control with baseline monitoring assays performed for 4-6 weeks before any drug was administered. Phlebotomy was continued daily, so that peripheral HbF levels in the animals were not considered to be accurate over the short treatment time-frames and were not monitored. Safety monitoring was performed by frequent physical examinations, quantitation of food eaten, activity and frequent chemistry and hematology monitoring. Complete blood counts were assayed before, during and after treatment. Results presented were not adjusted to account for the daily phlebotomy.
# [5] = tested on: hemoglobin polymerization; settings: artificially deoxygenated blood; cited from earlier work
# [6] = Exp. A, 0.1 mM, 12-13 days, untreated 76.0%
# [7] = Exp. C, 0.1 mM, overnight, untreated 52.0%
smiles,measurement,setting,value
"CCCC(=O)OCC [BAEE, butyric acid ethyl ester]",proportion of degraded DNA,"human erythroid cells; 1.0 mM to 2.0 mM, untreated 26%",13.8%
same,Degraded DNA,"human erythroid cells; 2.0 mM, 4 days, control 26%, 22%",13.8%
same,DNA fragmentation / cell viability / DNA integrity,human erythroid cells; DNA fragmentation assays,reduce DNA fragmentation
same,growth of K562,K562,"either did not inhibit, or slightly enhanced growth"
same,Gamma/(Gamma + Beta),[1]; [6],89.5%
same,Gamma/(Gamma + Beta),"[1]; Exp. B, 0.2 mM, 12-13 days, untreated 25.4%, 27.5%",74.0%
same,Gamma/(Gamma + Beta),[1]; [7],64.6%
same,induction of fetal globin mRNA,[2],significantly increased the induction of fetal globin MRNA
same,stimulation of fetal globin expression relative to AB,[2]; 1.0 mM,over two times greater than even AB alone
same,Gamma/Alpha,"[2]; 1.0 mM, 4 days, untreated 0.46",0.90
same,activation at 1000 µM,"[2]; Homo sapiens, 96 h, 1.0 mM, 4 days, read-out: Gamma Globin mRNA (increase)",44%
same,proliferation,K562 cells,did not significantly inhibit proliferation
same,erythroid cell growth and proliferation,[3],either had no effect or stimulated erythroid cell growth and proliferation
"O=C(O)CCc1ccccc1 [DHC, Dihydrocinnamic acid]",growth of K562,K562,"either did not inhibit, or slightly enhanced growth"
same,growth inhibition of K562,K562; greater than 0.5 mM,approximately 50%
same,Gamma/(Gamma + Beta),[1]; [6],88.0%
same,Gamma/(Gamma + Beta),[1]; [7],76.0%
same,Gamma/(Gamma + Beta),"[1]; Exp. C, 0.2 mM, overnight, untreated 52.0%",71.9%
same,Gamma/(Gamma + Beta),"[1]; Exp. C, 0.5 mM, overnight, untreated 52.0%",71.3%
same,activation at 100 µM,[4],124%
same,erythroid cell growth and proliferation,[3],either had no effect or stimulated erythroid cell growth and proliferation
same,red blood cell count,"anemic baboon; 1,000 mg/kg/day i.v., from 2.3",2.73 10^6 cells/μl
same,Total hemoglobin,"anemic baboon; 1,000 mg/kg/day i.v., from 6.6",7.3 grams/dl
same,packed red blood cell volume,"anemic baboon; 1,000 mg/kg/day i.v., from 20.9%",22.7 % of the blood
same,Fetal reticulocytes,"anemic baboon; 300 to 500 mg/kg per day infused, from 10%",17%
CC(C)(Oc1ccc(Cl)cc1)C(=O)O [clofibric acid],inhibition of polymerization,[5],inhibit polymerization
O=C(O)COc1ccc(Cl)cc1 [p-chloro phenoxy acetic acid],inhibition of polymerization,[5],inhibit polymerization
